# Reference: US9980940B2, “Composition for the treatment of neuropathies and/or neuropathic pain” (Kolinpharma S.p.A., priority 2014, dated 2018)
# Entries after “also recorded” stand apart in the source; their conditions may differ. Where two headings read alike, the source gives them in different places.
# Key:
# [1] = tested on: reactive oxygen species (ROS) in THP-1 cells; test: Intracellular levels of ROS (Assay 2), CellROX Deep Red; assay type: cell-based, human; settings: positive control; 100 mM H2O2 2 h; not significantly different from its vehicle control
# Protocol: The operating principle of the probe is based on the fact that it is not fluorescent in the reduced state, whereas following oxidation it develops a fluorescent signal with excitation peak at 640 nm and emission peak at 665 nm. Briefly, at the end of the period of stimulation with H2O2, the cells were incubated with CellROX® Deep Red Reagent at a final concentration of 5 μM in the medium at 37° C. for 30 min. The nuclei were labelled with Hoechst33342 and the fluorescences of both channels (CellROX® Deep Red and DAPI) were read on the GloMax plate fluorometer (Promega Italy). The fluorescence signals relating to the ROS were normalized for the signal of Hoechst33342 to cancel the variability in the fluorescence signal read due to the number of cells present in each well.
# The same plates were then also acquired in the confocal microscope for the purpose of obtaining representative images relating to quantifications of the various treatments.
# THP-1 human monocytes = settings: 24 h
# From the text: (§1) The MTT assay is a colorimetric cytotoxicity assay that makes it possible to test cellular proliferation and vitality based on the efficiency of mitochondrial respiration. MTT (3-(4,5-dimethylthiazol-2-yl)-2,5-diphenyl tetrazolium bromide) is a tetrazolium salt that is reduced by the highly reducing environment in the mitochondria of living cells by the action of mitochondrial dehydrogenase. Reduction of MTT causes formation of crystals of formazan that give the characteristic purple coloration to the mitochondria of living cells. […] Thus, although it is a test that evaluates cellular respiration, the MTT assay is considered to be an excellent method for determining cellular vitality.
# (§2) As preparation for the test, the cells were sown uniformly in 96-well plates at a density of 5×10^4 cells per well and incubated at 37° C., with 5% CO2, and simultaneously, the cells were treated following serial dilutions (1:2) in order to identify the maximum non-cytotoxic concentration for each component.
# (§3) The treatment was carried out for 24 hours. At the end, after brief washing in PBS, 20 μl of MTT (stock 5 mg/ml) in PBS was added to the THP-1 cells for 2 hours at 37° C. At the end of the incubation time, after removal from the medium and washing in PBS, 100 μl of DMSO was added for solubilization of the formazan crystals. Spectrophotometric reading was performed with a microplate reader (Tecan Sunrise) at a wavelength of 570 nm. The cellular vitality was calculated by measuring the optical density of the concentrations tested relative to the control (untreated cells).
# as §1, with “leads to” for “causes”, “impart” for “give”, “regarded as” for “considered to be”
# as §2, with “CO2” for “CO2,”, “at the same time” for “simultaneously,”, “with” for “following”
# as §3, with “to dissolve” for “for solubilization of”
# THP-1 cell line = settings: curcumin (Sigma, commercial); Hsu et al. 2008; cited from earlier work
# [2] = Solubility / dissolution of Xinepa and its ingredients
# IL-1β [3] = test: ELISA of IL-1β after LPS, Example 3; assay type: cell-based, human
# Protocol: (§4) Possible anti-inflammatory activity of the individual components and synergy between them in THP-1 cells was evaluated after 24 hours of treatment and stimulation with a known pro-inflammatory agent (LPS), measuring expression of IL-1β and TNFα using an ELISA kit (Thermo Fisher Scientific, Inc.).
# (§5) As preparation for the test, the THP-1 cells were sown uniformly in a 96-well plate at a density of 5×10^4 cells/well and treated with the maximum concentrations found to be non-cytotoxic in the MTT assay; untreated cells were used as negative control. Treatment was carried out at 37° C. at 5% CO2 for 20 h; then the sample was stimulated with LPS (component of the bacterial outer membrane, considered to be an inflammatory agent) for 4 hours.
# (§6) At the end of the treatment, the supernatants were collected and used for coating a pretreated ELISA plate, supplied with the kit.
# (§7) For analysis of the expression of both markers under examination (IL-1β and TNFα), a special kit is used that is based on the “sandwich” ELISA system in which a 96-well plate is coated with a monoclonal antibody specific to the particular cytokine.
# The standards, prepared on the basis of the instructions in the protocol and used for constructing the calibration curve, and the samples are added to the wells and the cytokine of interest binds the capture antibody immobilized on the bottom of the well. Next, the biotinylated anti-cytokine antibody is added to the wells so that the biotinylated antibody-antigen-antibody “sandwich” is formed. […] Addition of a solution of sulphuric acid turns the colour of the solution from blue to yellow, blocking the reaction and allowing accurate reading of the absorbance of the samples at 450 nm.
# The absorbance was then read at 450 and 550 nm using a microplate reader (Tecan Sunrise). The values obtained from the reading at 550 nm were subtracted from those at 450 nm to correct the optical imperfections of the microplate. […]
# [4] = tested on: ROS produced by the THP-1 cells; test: ROS assay (H2DCF-DA, flow cytometry), Example 2; assay type: cell-based, human; settings: 24 h treatment then H2O2 100 μM 2 h; concentrations indicated in Table 7
# Protocol: The antioxidant activity of the individual components and synergy between them was evaluated as efficiency of neutralization of the ROS produced by the THP-1 cells after application of an oxidizing agent: hydrogen peroxide (H2O2) at a concentration of 100 μM. The ROS were measured by the method described in Boulton S., Anderson A., Swalwell J., et al., 2011 Implications of using the fluorescent probes, dihydrorhodamine 123 and 2′,7′-dichlorodihydrofluorescein diacetate, for the detection of UV-A induced reactive oxygen species. […] The DCF produced is then quantified by reading with a flow cytometer and is proportional to the quantity of ROS present in the sample under examination. […]
# After removal of the H2DCF-DA solution, the cells were washed, collected and the fluorescence of the DCF was measured by analysis with a Coulter Epics XL flow cytofluorimeter. At least ten thousand cells were analysed for each sample and the mean fluorescence intensity was quantified by the XL2 software of the instrument.
# The parameter considered is MFI, mean fluorescence intensity, i.e. the geometric mean of the fluorescence intensity of the cells in which H2DCF-DA has been transformed into the fluorescein-treated DCF form, which is proportional to the amount of ROS per sample. […]
# TNFα [5] = test: ELISA of TNFα after LPS, Example 3; assay type: cell-based, human
# Protocol: as §4, §5, §6, §7
# The standards, prepared on the basis of the instructions in the protocol and used for constructing the calibration curve, and the samples are added to the wells and the cytokine of interest binds the capture antibody immobilized on the bottom of the well. […] Addition of a solution of sulphuric acid turns the colour of the solution from blue to yellow, blocking the reaction and allowing accurate reading of the absorbance of the samples at 450 nm.
# The absorbance was then read at 450 and 550 nm using a microplate reader (Tecan Sunrise). The values obtained from the reading at 550 nm were subtracted from those at 450 nm to correct the optical imperfections of the microplate.
# The possible anti-inflammatory action of the individual components of Xinepa and the possible synergy were evaluated by measuring the levels of TNFα following stimulation with LPS. […]
# THP-1 cells = test: MTT assay (Assay 0), cellular vitality; assay type: cell-based, human; settings: positive controls at 100 μM
# Protocol: The cells were kept in an incubator at 37° C. and 5% CO2 and sown every 3-4 days at a density of about 5×10^5 cells/ml.
# This colorimetric assay is based on the transformation of tetrazolium salt MTT (yellow) to formazan (violet), by the reductase succinate-tetrazolium system, which belongs to the respiratory chain of the mitochondria and is only active in metabolically active cells. Briefly, the cells grown in a 96-well plate were incubated with the solution of MTT for 4 hours. […] The absorbance measured correlates directly with the number of live cells.
# To exclude a possible toxic effect attributable to the incubation protocol selected, cellular vitality was quantified by the MTT assay.
# IL-1β [6] = test: ELISA assay (Assay 1a), release of IL-1β; assay type: cell-based, human; settings: positive controls; LPS 1 μg/ml 2 h
# TNFα [7] = test: ELISA assay (Assay 1a), release of TNFα; assay type: cell-based, human; settings: positive controls; LPS 1 μg/ml 2 h
# [8] = 24-hour treatment and stimulation with LPS
# [9] = relative to stimulated untreated cells (Ctrl + LPS = 100)
compound,measurement,setting,value
tocopherol [vitamin E],antioxidant action (ROS levels),[1],partial antioxidant action
"O=C(O)CCCCC1CCSS1 (stereo not drawn) [Lipoic acid, Alpha-lipoic acid]",Maximum non-cytotoxic concentration,THP-1 human monocytes; human,0.3750 mg/mL
"COc1cc(/C=C/C(=O)CC(=O)/C=C/c2ccc(O)c(OC)c2)ccc1O [curcumin, (1E,6E)-1,7-bis(4-hydroxy-3-methoxyphenyl)-hepta-1,6-diene-3,5-dione]",non-cytotoxic concentration found for curcumin,THP-1 cell line,10 µM
"Cc1cc2nc3c(=O)[nH]c(=O)nc-3n(C[C@H](O)[C@H](O)[C@H](O)CO)c2cc1C [vitamin B2, riboflavin]",solubility of individual ingredients,[2]; water vs alcohols or organic solvents,soluble in water but not in alcohols
CC(=O)O[C@H](CC(=O)[O-])C[N+](C)(C)C [Component C],levels of IL-1β vs stimulated control,IL-1β [3]; [8],increase
same,IL-1β,"IL-1β [3]; 24 h treatment at non-cytotoxic concentrations incl. LPS 4 h, Ctrl + LPS 4.84",4.98 pg/mL
same,IL-1β (%),IL-1β [3]; [9],102.91%
same,Cellular vitality (%),THP-1 human monocytes; N-Acetyl-L-carnitine 0.25 mg/ml,102.221%
same,Cellular vitality (%),THP-1 human monocytes; N-Acetyl-L-carnitine 0.5 mg/ml,97.615%
same,Cellular vitality (%),THP-1 human monocytes; N-Acetyl-L-carnitine 1 mg/ml,90.355%
same,Cellular vitality (%),THP-1 human monocytes; N-Acetyl-L-carnitine 2 mg/ml,91.422%
same,Cellular vitality (%),THP-1 human monocytes; N-Acetyl-L-carnitine 4 mg/ml,60.848%
same,Maximum non-cytotoxic concentration,"THP-1 human monocytes; components A, B, C tested individually (lipoic acid, vitamin C, vitamin E acetate together as component B), mortality not greater than 30%",2 mg/mL
same,Non-cytotoxic concentration,THP-1 human monocytes; each component when tested together (A + B + C),0.01 mg/mL
same,levels of ROS,[4],comparable to those of the positive control
same,dissolution in complete medium,"[2]; RPMI medium with 10% FBS, L-glutamine 2 mM and antibiotics",did not cause problems in dissolution; also recorded: did not cause problems of dissolution
same,levels of TNFα vs stimulated control,TNFα [5]; [8],levels lower than the stimulated control
same,TNFα,"TNFα [5]; 24 h treatment at non-cytotoxic concentrations, LPS 4 h, Ctrl + LPS 424.12",386.98 pg/mL
same,TNFα (%),TNFα [5]; [9],91.24%
CS(=O)(=O)Nc1ccc([N+](=O)[O-])cc1Oc1ccccc1 [nimesulide],toxicity on the cells (MTT),THP-1 cells,did not identify any effect of toxicity
same,release of IL-1β relative to control,IL-1β [6],effective in reducing the release of IL-1β
same,release of TNFα relative to control,TNFα [7],showed anti-inflammatory action
CC(C)Cc1ccc(C(C)C(=O)O)cc1 (stereo not shown) [ibuprofen],toxicity on the cells (MTT),THP-1 cells,did not identify any effect of toxicity
same,release of IL-1β relative to control,IL-1β [6],did not have any effect
same,release of TNFα relative to control,TNFα [7],did not cause any reduction
